# Values of other authors as cited in patent US20260101892A1, “METHOD TO INHIBIT PROLIFERATION OF A PHYTOPATHOGEN ON PLANTS AND COMPOSITIONS USED FOR THIS PURPOSE” (CYSBIO APS, priority 2022, published 2026).
# Like-named read-outs stand apart in the source and are kept apart here. Marks after values point to notes of the source that are not given here.
# Key:
# E. coli [1] = details: cited from earlier work; for Cell adhesion Reduction (%): (compound − control) × 100 / control, negative = reduction; for anti-biofilm activity (cell adhesion): at the concentrations tested by Catto et al. (0.183-1830 μM)
# E. coli [2] = details: cited from earlier work; for Planktonic growth A600/min (×10^−3): LB medium, 30° C., 24 hours; for Planktonic growth Reduction (%): (compound − control) × 100 / control, negative = reduction
Structure (SMILES),Cell adhesion Reduction (%) (E. coli [1]; 0.183 μM),Cell adhesion N. adhered cells (×10^7) (E. coli [1]; 0.183 μM),Cell adhesion Reduction (%) (E. coli [1]; 1.83 μM),Cell adhesion N. adhered cells (×10^7) (E. coli [1]; 1.83 μM),Cell adhesion Reduction (%) (E. coli [1]; 18.3 μM),Cell adhesion N. adhered cells (×10^7) (E. coli [1]; 18.3 μM),Cell adhesion Reduction (%) (E. coli [1]; 183 μM),Cell adhesion N. adhered cells (×10^7) (E. coli [1]; 183 μM),Cell adhesion Reduction (%) (E. coli [1]; 1830 μM),Cell adhesion N. adhered cells (×10^7) (E. coli [1]; 1830 μM),Planktonic growth A600/min (×10^−3) (E. coli [2]; 0.183 μM),Planktonic growth Reduction (%) (E. coli [2]; 0.183 μM),Planktonic growth A600/min (×10^−3) (E. coli [2]; 1.83 μM),Planktonic growth Reduction (%) (E. coli [2]; 1.83 μM),Planktonic growth A600/min (×10^−3) (E. coli [2]; 18.3 μM),Planktonic growth Reduction (%) (E. coli [2]; 18.3 μM),Planktonic growth A600/min (×10^−3) (E. coli [2]; 183 μM),Planktonic growth Reduction (%) (E. coli [2]; 183 μM),Planktonic growth A600/min (×10^−3) (E. coli [2]; 1830 μM),Planktonic growth Reduction (%) (E. coli [2]; 1830 μM),also measured
"O=C(O)/C=C\c1ccccc1 [Cis-cinnamic acid, cis-cinnamic acid]",28.52,2.46 ± 0.17^b ×10^7,23.00,2.36 ± 0.26^b ×10^7,−29.61,1.35 ± 0.28^b ×10^7,164.82,5.08 ± 0.53^c ×10^7,183.29,5.43 ± 0.76^c ×10^7,1.32 ± 0.04^ab A600/min (×10^−3),2.71,1.28 ± 0.07^ab A600/min (×10^−3),−0.56,1.30 ± 0.03^ab A600/min (×10^−3),1.27,1.24 ± 0.05^a A600/min (×10^−3),−3.17,0.88 ± 0.02^c A600/min (×10^−3),−31.64,anti-biofilm activity (cell adhesion) (E. coli [1]): promotes biofilm formation at all concentrations tested
"O=C(O)/C=C/c1ccccc1 [Trans-cinnamic acid, trans-cinnamic acid]",−34.95,1.25 ± 0.43^cdef ×10^7,−38.77,1.17 ± 0.17^cdf ×10^7,−7.37,1.78 ± 0.10^bcef ×10^7,−25.03,1.44 ± 0.15^bcdef ×10^7,−31.11,1.32 ± 0.28^cdef ×10^7,1.24 ± 0.04^abcd A600/min (×10^−3),−3.32,1.22 ± 0.01^abcdf A600/min (×10^−3),−4.74,1.19 ± 0.04^bcdef A600/min (×10^−3),−7.58,1.14 ± 0.05^def A600/min (×10^−3),−11.37,0.83 ± 0.02^h A600/min (×10^−3),−35.10,"concentrations at which anti-biofilm efficacy is shown (E. coli [1]; Catto et al., table 1): > 0.183 µM"
"O=C(O)/C=C\c1ccc(O)cc1 [Cis-coumaric acid, cis-coumaric acid]",−27.34,1.39 ± 0.15^abc ×10^7,−14.39,1.64 ± 0.11^bc ×10^7,−4.30,1.83 ± 0.14^bc ×10^7,−15.26,1.62 ± 0.19^bc ×10^7,184.36,5.45 ± 1.00^e ×10^7,1.29 ± 0.07^a A600/min (×10^−3),0.30,1.27 ± 0.05^a A600/min (×10^−3),−0.88,1.27 ± 0.04^a A600/min (×10^−3),−1.26,1.28 ± 0.06^a A600/min (×10^−3),−0.16,1.25 ± 0.02^a A600/min (×10^−3),−2.25,anti-biofilm activity (cell adhesion) (E. coli [1]): strongly reduced anti-biofilm activity; biocidal effect (E. coli [2]; at the concentrations tested by Catto et al. (0.183-1830 μM)): no biocidal activity
